In patent US20250262333A1, “Construct for Transferring Foreign Substance, and Use Thereof” (TOAGOSEI CO., LTD., priority 2022, published 2025):
FAM = 5(6)-carboxyfluorescein (C21H12O7), a fluorescent dye

The substances below were run on HeLa cells (assay: Evaluation of cell membrane penetration by flow cytometry). Conditions: 10 μM additive, 0.5% DMSO, 20 hours at 37° C., 5% CO2, FAM fluorescence, detector FL2.
Type: cell-based, human
Procedure: As the eukaryotic cells, HeLa cells (established cell strain derived from a human cervical cancer cell) were used and the cell membrane penetration of the peptides 1 to 6 was analyzed. In Examples 1 to 6, the prepared samples 1 to 6 were used, respectively, and in Example 7, the FAM solution was used.
The HeLa cell was cultured in 10% fetal bovine serum (FBS)-containing Dulbecco's modified Eagle's medium (DMEM (Cat No. 043-30085, manufactured by FUJIFILM Wako Pure Chemical Corporation)), which is a normal culture medium.
The HeLa cell that adhered to a culture plate was cleaned with PBS and then, a 0.25%-trypsin/EDTA solution was added thereto, and incubation was performed for three minutes at 37° C. After the incubation, the aforementioned 10% FBS-containing DMEM was added to deactivate trypsin and then, five-minute centrifugal separation was performed at 150×g to precipitate the cells. After the supernatant generated by the centrifugal separation was removed, the 10% FBS-containing DMEM was added to the precipitate (cell pellet) to prepare a cell suspension of about 2×10^5 cells/mL. The cell suspension was added by 1 mL to a well of a commercially available six-hole (well) plate (manufactured by AGC TECHNO GLASS Co., Ltd.) so as to seed the cell (about 2×10^5 cells/well). In addition, the 2 mM sample solution 1 was diluted with the 10% FBS-containing DMEM to prepare the sample solution 1 in which the concentration of the sample 1 was 20 μM. Then, 1 mL of the 20 μM sample solution 1 was added to the well (that is, so that the concentration of the sample 1 became 10 μM and the DMSO concentration became 0.5% in the culture solution in the well). After that, the cell was incubated for 20 hours at 37° C. under a 5% CO2 condition.
After the 20-hour incubation, the culture supernatant was removed from the well and the cells in the well were cleaned twice with 1 mL of PBS. Next, 200 μL of the 0.25% trypsin/EDTA solution was added to the well and the incubation was performed for three minutes at 37° C. After the incubation, 400 μL of the 10% FBS-containing DMEM was added to the well to deactivate the trypsin. Subsequently, the cell suspension in the well was transferred to a tube and the cells were collected. After that, 600 μL of PBS was added further to the well to clean the well. Then, PBS in the well was transferred to the tube, so that the cells remaining in the well were collected in the tube. This tube was subjected to five-minute centrifugal separation at 4° C. under a condition of 210×g. After the centrifugal separation, the supernatant was removed and the precipitate (cell pellet) was suspended (cleaned) with 1 mL of PBS, which was followed by the centrifugal separation under the same condition as that described above. After this operation was repeated twice, the supernatant was removed and thus, the cells (cell pellet) cultured in a culture medium containing the sample 1 were obtained.
Regarding the obtained cells (cell pellet), the cell membrane penetration of the sample 1 was analyzed using a flow cytometer. As the flow cytometer, On-Chip Flowcytometer (manufactured by On-Chip Biotechnologies Co., LTD.) was used.
For such an analysis, the obtained cell pellet was suspended with 50 μL of PBS. To this suspension, additionally, 50 μL of 2× sample buffer for the flow cytometer was added so as to prepare a cell suspension for analysis.
Using the aforementioned flow cytometer, gating based on forward scatter (FSC) and side scatter (SSC) was performed to set a gate about a cell group to be analyzed, and the fluorescence intensity was measured about the cell group in this gate. Note that the analysis was performed so that the cell group contained at least 10000 or more cells. The fluorescence intensity was measured using a fluorescence detector FL2 of the flow cytometer (optimum detection wavelength around 543 nm) capable of detecting the fluorescence wavelength of FAM. […]

Substance	MFI (mean fluorescence intensity)
5 (6)-carboxyfluorescein [Example 7, reference compound]	10.5
Ac-RSRKYTSWYVALKR-FAM (Ac-RSRKYTSWYVALKR-{FAM}) [Example 2, reference compound]	13.4
Ac-KSRKYTSWYVALKR-FAM (Ac-KSRKYTSWYVALKR-{FAM}) [Example 4]	13.2
Ac-RSRKYTSWYVALKRWPC-FAM (Ac-RSRKYTSWYVALKRWPC-{FAM}) [Example 1]	50.4
Ac-RSRKYTSWYVALKK-FAM [Example 6]	11.1
Ac-KSKKYTSWYVALKR-FAM (Ac-KSKKYTSWYVALKR-{FAM}) [Example 3]	14.6
Ac-RSKKYTSWYVALKR-FAM (Ac-RSKKYTSWYVALKR-{FAM}) [Example 5]	12.8

Same assay, conditions: 10 μM, 20 hours, compared with Example 2 (construct including the peptide 2)

Substance	cell membrane penetration / value of MFI, comparison in words
Ac-RSRKYTSWYVALKRWPC-FAM (Ac-RSRKYTSWYVALKRWPC-{FAM}) [Example 1]	remarkably higher
